Data on two compounds can be found in patent publication EP4014997A1, “STARD1 INHIBITORS FOR THE TREATMENT OF LYSOSOMAL DISORDERS” (Consejo Superior de Investigaciones Científicas (CSIC), priority 2020, dated 2022).

The test system of one data set is patients. The following applies: NPC patients; cited from earlier work.
A further data set has as its system PMH from Npc1+/+ mice. The data set is described as follows: Filipin and cytochrome c co-staining, confocal microscopy (mitochondrial cholesterol). It is filed as cell-based, mouse. The settings on record: HMβCD 2mM, 16 hours, co-treatment with U18666A; PMH from Npc1+/+ mice. On the procedure: (§1) PMH were isolated by collagenase perfusion at a flow rate of 7-9ml/min and cultured at a density of 2×10^5 cells in 12-well plates coated with rat tail collagen. Hepatocytes were cultured in DMEM/F12 culture media (Gibco, 21331-020) supplemented with 10% FBS for the first 3 hours post isolation, together with 10.000U/ml Penicillin-Streptomycin (Gibco, 15140-122), 200mM L-Glutamine (Gibco, 25030-024), 7.5mM D-Glucose (Sigma, G6152) and 150mM Hepes pH 7.4 (Sigma,). For subsequent treatments, FBS was replaced for 1mM methionine (Sigma, M5308).
(§2) PMH from Npc1^+/+ and human Npc^+/+ control fibroblasts were treated with U18666A (2µg/ml) or HMβCD (2mM) for 16 hours. In some other cases, PMH from Npc1^-/- and Npc^-/- fibroblast from NPC patients were treated with HMβCD as above for control PMH.
(§3) PMH were fixed for 15min with 3.7% paraformaldehyde and permeabilized for 5min with 0.2% saponin dissolved in 0.5% BSA-fatty acid free (FAF) in PBS commercial buffer. Cells were blocked with 1% BSA FAF for 15minutes. Cytochrome c (Cytc) (BD Pharmigen, #556432) and Lamp2 (Abcam, #ab13524) primary antibodies were incubated overnight in BSA 1% followed by a secondary antibody for 1 hour at room temperature in BSA 0.1%. Filipin ([…], Sigma) was added during the secondary antibody incubation and the following steps were performed in the dark. Stained samples were embedded in fluoromont (Sigma) and digital images were taken in a Leica SP2 laser scanning confocal microscope equipped with UV excitation, an argon laser, a 633/1.32 OIL PH3 CS objective and a confocal pinhole set at 1 Airy unit. All the confocal images shown were single optical sections. Scale bar represents 25 µm. Percentage of cholesterol mass containing mitochondria was analyzed with the Colocalization nBits nimages plugin (Confocal Microscopy Unit, Facultad de Medicina, Universidad de Barcelona) in the ImageJ Software in 5 consecutive images of each experimental condition.

A further data set deals with PMH from Npc1-/- mice. The description is as above. The format is cell-based, mouse. The following applies: HMβCD 2mM, 16 hours. On the procedure:
as §1, §2, §3

In the next data set the test system is Npc+/+ fibroblasts. Described as above. It is filed as cell-based, human. The settings on record: HMβCD 2mM, 16 hours, co-treatment with U18666A; Npc+/+ fibroblasts from control patients. On the procedure:
(§4) Fibroblasts from patients with NPC disease used have been previously described (Torres et al., Redox Biol. 2017 Apr;11:60-72). Briefly, cultured human skin fibroblasts from control individuals (HSF; GM5659D) and patients with NPC disease were a generous gift from Thierry Levade, Laboratoire de Biochimie Metabolique, Institut Federatif de Biologie (CHU Toulouse, France) or obtained from Coriell Institute for Medical Research (GM03123, NJ, USA) and were grown at 37°C in 5% CO2. DMEM (Gibco) culture medium was supplemented with 10% fetal bovine serum (FBS, Gibco, 10-270-106) and 10.000U/ml Penicillin-Streptomycin (Gibco, 15140-122).
as §2
PMH were fixed for 15min with 3.7% paraformaldehyde and permeabilized for 5min with 0.2% saponin dissolved in 0.5% BSA-fatty acid free (FAF) in PBS commercial buffer. Cells were blocked with 1% BSA FAF for 15minutes. […] Percentage of cholesterol mass containing mitochondria was analyzed with the Colocalization nBits nimages plugin (Confocal Microscopy Unit, Facultad de Medicina, Universidad de Barcelona) in the ImageJ Software in 5 consecutive images of each experimental condition.

Data set [1] deals with Npc-/- fibroblasts from NPC patients. The description is as above. The following applies: HMβCD 2mM, 16 hours. It is filed as cell-based, human. As for the experimental part: as §4
PMH from Npc1^+/+ and human Npc^+/+ control fibroblasts were treated with U18666A (2µg/ml) or HMβCD (2mM) for 16 hours. In some other cases, PMH from Npc1^-/- and Npc^-/- fibroblast from NPC patients were treated with HMβCD as above for control PMH. […]
PMH were fixed for 15min with 3.7% paraformaldehyde and permeabilized for 5min with 0.2% saponin dissolved in 0.5% BSA-fatty acid free (FAF) in PBS commercial buffer. […] Percentage of cholesterol mass containing mitochondria was analyzed with the Colocalization nBits nimages plugin (Confocal Microscopy Unit, Facultad de Medicina, Universidad de Barcelona) in the ImageJ Software in 5 consecutive images of each experimental condition.

The test system of data set [2] is STARD1. The data set is described as follows: Western blot of STARD1 protein expression in primary mouse hepatocytes. The format is cell-based. The settings on record: HMβCD 2mM, 16 hours. On the procedure:
as §2
(§5) 100mg of liver were homogenized with a pestle homogenizer in 1ml of homobuffer (70mM saccharose, 220mM mannitol, 2mM Tris-HCI pH 7.4, 0,1mM EDTA, 0.1% fatty acid free BSA) supplemented with protease and phosphatase inhibitors (Roche). Liver homogenates were diluted 4 times with RIPA lysis buffer (Sigma) with anti-proteases and anti-phosphatases. Cells were washed with PBS and lysed with ice-cold RIPA lysis buffer supplemented with protease and phosphatase inhibitors. Samples were incubated 15min at 4°C, vortexed and spinned down for 5min at 10000rpm. All supernatants were collected and quantified for protein concentration using Quick-Bradford reagent (Bio-Rad) and 20-50µg of protein were subjected to 4-12% SDS-polyacrylamide gel electrophoresis (SDS-PAGE) (Bio-Rad, XT-Criterion). Proteins were electrotransferred at 4°C onto Hybond ECL nitrocellulose membranes (Amersham) and 5% BSA solution in TBS-Tween was used to block the membranes for 1h at room temperature. Membranes were incubated overnight with the following primary antibodies: anti-PDI (Cell Signaling, 24465), anti-CHOP (Cell Signaling, 2895S), anti-Phospho eiF2A (Cell Signaling, 9721S), anti-eiF2A (Cell Signaling, 9722) and anti-STARD1 (Abcam, ab58013), anti-BIP (Stressgen, SPA826), anti-XBP1 (Santa Cruz, CS-8015) and anti-Mln64 (Santa Cruz SC-292868), ACDAse (Sigma, SAB3500293), LRH-1 (Santa Cruz, Cs-393369) and anti-β-Actin HRP-conjugated (Sigma, A3854). Membranes were thoroughly washed with TBS-Tween and incubated for 45min with their respective HRP-conjugated secondary antibodies. Pierce ECL Western Blotting Substrate (Thermo Scientific) was used to develop the membranes. Images were digitally captured by LAS4000 (GE Healthcare) and optical density was analyzed with ImageJ software.

Data set [3] relates to STARD1. The data set is described as follows: Western blot of STARD1 protein expression in human fibroblasts. It is filed as cell-based. The settings on record: HMβCD 2mM, 16 hours. As for the experimental part:
as §2
(§6) Fibroblasts from NPC patients were transfected with cDNA to overexpress ACDase (ASAH1) (SEQ ID NO: 5; MGC Human ASAH1 Sequence-Verified cDNA Accession: BC016481 Clone ID: 3923451) commercially purchased from GE Dharmacon. Transfection was performed using Lipofectamine2000 (Invitrogen). Briefly, 250000 fibroblasts were incubated with the transfection mixtures containing 250ng of the sobrexpression ACDase vector or the scrambled control-GFP vector. Cells were assayed 48 h after transfection for mRNA and protein levels. SEQ ID NO: 5 >ENA|BC016481|BC016481.1 Homo sapiens N-acylsphingosine amidohydrolase (acid ceramidase) 1, mRNA (cDNA clone MGC:9327 IMAGE:3923451), complete cds. [formula] [formula] [formula]
(§7) 100mg of liver were homogenized with a pestle homogenizer in 1ml of homobuffer (70mM saccharose, 220mM mannitol, 2mM Tris-HCI pH 7.4, 0,1mM EDTA, 0.1% fatty acid free BSA) supplemented with protease and phosphatase inhibitors (Roche). Liver homogenates were diluted 4 times with RIPA lysis buffer (Sigma) with anti-proteases and anti-phosphatases. Cells were washed with PBS and lysed with ice-cold RIPA lysis buffer supplemented with protease and phosphatase inhibitors. Samples were incubated 15min at 4°C, vortexed and spinned down for 5min at 10000rpm. All supernatants were collected and quantified for protein concentration using Quick-Bradford reagent (Bio-Rad) and 20-50µg of protein were subjected to 4-12% SDS-polyacrylamide gel electrophoresis (SDS-PAGE) (Bio-Rad, XT-Criterion). Proteins were electrotransferred at 4°C onto Hybond ECL nitrocellulose membranes (Amersham) and 5% BSA solution in TBS-Tween was used to block the membranes for 1h at room temperature. […] Images were digitally captured by LAS4000 (GE Healthcare) and optical density was analyzed with ImageJ software.

Data set [4] has as its system MLN64. The data set is described as follows: Western blot of MLN64 protein expression in primary mouse hepatocytes. The settings on record: HMβCD 2mM, 16 hours, co-treatment with U18666A; PMH from Npc1+/+ mice. The format is cell-based. As for the experimental part:
as §2, §7

The subject of data set [5] is MLN64. The data set is described as follows: Western blot of MLN64 protein expression in human fibroblasts. The format is cell-based. The following applies: HMβCD 2mM, 16 hours, co-treatment with U18666A; control Npc+/+ fibroblasts. As for the experimental part:
as §2
Fibroblasts from NPC patients were transfected with cDNA to overexpress ACDase (ASAH1) (SEQ ID NO: 5; MGC Human ASAH1 Sequence-Verified cDNA Accession: BC016481 Clone ID: 3923451) commercially purchased from GE Dharmacon. Transfection was performed using Lipofectamine2000 (Invitrogen). Briefly, 250000 fibroblasts were incubated with the transfection mixtures containing 250ng of the sobrexpression ACDase vector or the scrambled control-GFP vector. Cells were assayed 48 h after transfection for mRNA and protein levels. […]
100mg of liver were homogenized with a pestle homogenizer in 1ml of homobuffer (70mM saccharose, 220mM mannitol, 2mM Tris-HCI pH 7.4, 0,1mM EDTA, 0.1% fatty acid free BSA) supplemented with protease and phosphatase inhibitors (Roche). […] All supernatants were collected and quantified for protein concentration using Quick-Bradford reagent (Bio-Rad) and 20-50µg of protein were subjected to 4-12% SDS-polyacrylamide gel electrophoresis (SDS-PAGE) (Bio-Rad, XT-Criterion). […] Images were digitally captured by LAS4000 (GE Healthcare) and optical density was analyzed with ImageJ software.

Data set [6] has as its system ACDase. The data set is described as follows: Western blot of ACDase protein expression in primary mouse hepatocytes. It is filed as cell-based. The following applies: HMβCD 2mM, 16 hours. On the procedure:
as §2, §5

Data set [7] has as its system ACDase. The data set is described as follows: Western blot of ACDase protein expression in human fibroblasts. The format is cell-based. The following applies: HMβCD 2mM, 16 hours. As for the experimental part:
as §2, §6, §7

Data set [8] relates to Npc1 gene-defective (Npc1-/-) mice. The following applies: cited from earlier work.
For the next data set, the system named is NPC child patients. The settings on record: intravenous instillation 2500 mg/kg per time, 1 to 3 times per week, more than 1 year; cited from earlier work.
The mark [9] stands for this setting: co-treatment with U18666A, PMH from Npc1+/+ mice.
Setting [10] is: PMH from Npc1-/- mice, no U18666A.
The mark [11] stands for this setting: co-treatment with U18666A, control Npc+/+ fibroblasts.
Where [12] appears, read: Npc-/- fibroblasts from NPC patients, no U18666A.

Consider `CCCCN1C[C@H](O)[C@@H](O)[C@H](O)[C@H]1CO` [miglustat], for which, in the data set with patients, the “life span of patients” value is recorded as “extends the life span of patients”.

On to `CC(O)COC[C@H]1O[C@@H]2O[C@H]3[C@H](O)[C@@H](O)[C@@H](O[C@H]4[C@H](O)[C@@H](O)[C@@H](O[C@H]5[C@H](O)[C@@H](O)[C@@H](O[C@H]6[C@H](O)[C@@H](O)[C@@H](O[C@H]7[C@H](O)[C@@H](O)[C@@H](O[C@H]8[C@H](O)[C@@H](O)[C@@H](O[C@H]1[C@H](O)[C@H]2O)O[C@@H]8COCC(C)O)O[C@@H]7COCC(C)O)O[C@@H]6COCC(C)O)O[C@@H]5COCC(C)O)O[C@@H]4COCC(C)O)O[C@@H]3COCC(C)O` (stereo partly drawn) [HMβCD, 2-hydroxypropyl-β-cyclodextrin], for which the “U18666A-induced cholesterol accumulation and trafficking to mitochondria” value was “prevented U18666A-induced cholesterol accumulation and trafficking to mitochondria” with PMH from Npc1+/+ mice; “prevented U18666A-induced cholesterol accumulation and trafficking to mitochondria” in the data set on Npc+/+ fibroblasts. In addition, the mitochondrial cholesterol increase entry (with PMH from Npc1-/- mice; in data set [1]) was “exhibited the same changes induced by HMβCD” throughout. For the same compound, the “increase of STARD1 induced by U18666A” value with STARD1 [2] (setting [9]) and with STARD1 [3] (setting [11]) was “reverse the increase of STARD1” throughout. Also, the “expression levels of STARD1” value with STARD1 [2] (setting [10]) and in the data set on STARD1 [3] (setting [12]) was “exhibited the same changes induced by HMβCD” each time. For the same compound, the “increased expression of MLN64 induced by U18666A” value in the data set on MLN64 [4] and with MLN64 [5] was “prevented the increased expression of MLN64” in each case. For the same compound, the “repression of ACDase induced by U18666A” value in the data set on ACDase [6] (setting [9]) is “reverse the increase of STARD1 and the repression of ACDase”; in the data set with ACDase [7] (setting [11]), “reverse the increase of STARD1 and the repression of ACDase”. For the same compound, the “expression levels of ACDase” value with ACDase [6] (setting [10]) and in the data set on ACDase [7] (setting [12]) was “exhibited the same changes induced by HMβCD” throughout. Moreover, the “improving effect, direct administration into the brain compared with systemic administration” value in data set [8] (directly administered into the brain, Npc1-/- mice) is “increased a few hundred times”. Moreover, the “medical state or survival” value in data set [8] (intravenously administered, Npc1-/- mice) is “effective in improving the medical state or prolonging survival”. In addition, the “crossing of the blood brain barrier” value in data set [8] (mouse, in vivo) was “inability of HPBCD to cross the blood brain barrier”. Moreover, the nervous symptom result with NPC child patients was “saw no improvement”. For the same compound, in the data set with NPC child patients, the side effects result is “severe side effects have been observed”. Further, the “splenomegaly and brain wave” value in the data set on NPC child patients was “certain effect of reduction of splenomegaly and improvement in a brain wave”.
